Source: ChEMBL document CHEMBL1201862, “PubChem BioAssay data set” (2004)
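Interpolation was linear, between the two tested concentrations surrounding the appropriate level; five concentrations were tested over 48 hours in 96-well plates. Here, GI50 denotes the concentration required for 50% inhibition of growth.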 Calls of active or inactive are those of the source. No stated cut-off is given here; in the data, active = GI50 up to about 1.1 µM and inactive = higher.

Assays:
Test in all cases: NCI anticancer screen, dose series, 48 h
OVCAR-5 = system: OVCAR-5
OVCAR-8 = system: OVCAR-8
CCRF-CEM = system: CCRF-CEM
M14 = system: M14
LOX IMVI = system: LOX IMVI
SR = system: SR
786-0 = system: 786-0
NCI/ADR-RES = system: NCI/ADR-RES
UACC-62 = system: UACC-62
KM12 = system: KM12
SK-MEL-5 = system: SK-MEL-5
HOP-62 = system: HOP-62
HCC 2998 = system: HCC 2998
NCI-H522 = system: NCI-H522
OVCAR-3 = system: OVCAR-3
SK-OV-3 = system: SK-OV-3
OVCAR-4 = system: OVCAR-4
CAKI-1 = system: CAKI-1

Measured: GI50

CCOC(=O)c1nc2ccc(C(F)(F)F)cc2nc1Nc1cc(OC)c(OC)c(OC)c1
inactive: OVCAR-5 > 100 µM | OVCAR-8 > 100 µM | CCRF-CEM > 100 µM | M14 > 100 µM | LOX IMVI > 100 µM | SR > 100 µM | 786-0 > 100 µM | NCI/ADR-RES > 100 µM | UACC-62 > 100 µM | KM12 > 100 µM | SK-MEL-5 > 100 µM | HOP-62 > 100 µM | HCC 2998 > 100 µM | NCI-H522 > 100 µM | OVCAR-3 > 100 µM | SK-OV-3 > 100 µM

Cc1nc2ccc(F)cc2c2c1CCS2
inactive: OVCAR-8 69.3 µM | CCRF-CEM 41 µM | LOX IMVI 51.3 µM | SR 56.8 µM | OVCAR-4 > 100 µM | 786-0 78.7 µM | NCI/ADR-RES 95.1 µM | UACC-62 81.7 µM | KM12 64.9 µM | SK-MEL-5 30.3 µM | HOP-62 57.4 µM | HCC 2998 58.1 µM | NCI-H522 75.5 µM | OVCAR-3 45.9 µM

COc1c(-c2nc3ccc(N4CCN(C)CC4)cc3[nH]2)cc(OC)c2[nH]c(COC(C)=O)nc12
inactive: OVCAR-5 > 100 µM | OVCAR-8 55.1 µM | CCRF-CEM 29.2 µM | M14 19.6 µM | LOX IMVI 30.8 µM | CAKI-1 > 100 µM | SR 27.8 µM | OVCAR-4 29.8 µM | 786-0 36.6 µM | NCI/ADR-RES > 100 µM | UACC-62 > 100 µM | KM12 31.3 µM | SK-MEL-5 94.6 µM | HOP-62 67.1 µM | NCI-H522 48.9 µM | OVCAR-3 > 100 µM | SK-OV-3 63.7 µM

O=C(O)c1ccccc1/N=N/c1c(O)c(S(=O)(=O)O)cc2cc(S(=O)(=O)O)ccc12
inactive: OVCAR-5 > 100 µM | OVCAR-8 > 100 µM | CCRF-CEM > 100 µM | M14 > 100 µM | CAKI-1 > 100 µM | SR > 100 µM | OVCAR-4 > 100 µM | 786-0 > 100 µM | NCI/ADR-RES > 100 µM | UACC-62 > 100 µM | KM12 84.3 µM | SK-MEL-5 > 100 µM | HOP-62 > 100 µM | HCC 2998 > 100 µM | NCI-H522 > 100 µM | OVCAR-3 > 100 µM | SK-OV-3 > 100 µM

Cc1ccc(S(=O)(=O)N/N=C2/CCC3(O)CC2(C)CCC2[C@H]3CC2(C)C)cc1 (stereo partly drawn)
inactive: OVCAR-5 29.4 µM | OVCAR-8 34.7 µM | CCRF-CEM 12 µM | M14 43.4 µM | LOX IMVI 11.2 µM | CAKI-1 52.6 µM | SR 35.9 µM | OVCAR-4 35.9 µM | 786-0 31.8 µM | NCI/ADR-RES 28.2 µM | UACC-62 20.3 µM | KM12 32.6 µM | SK-MEL-5 16.5 µM | HOP-62 43 µM | NCI-H522 26.2 µM | OVCAR-3 40.2 µM | SK-OV-3 32.4 µM

O=C1Nc2ccccc2/C1=C\c1c(Cl)n(-c2ccccc2)c2ccccc12
inactive: OVCAR-5 3.08 µM | OVCAR-8 2.71 µM | CCRF-CEM 6.65 µM | M14 2.92 µM | LOX IMVI 3.56 µM | CAKI-1 2.49 µM | SR 2.96 µM | OVCAR-4 5.02 µM | 786-0 2.67 µM | NCI/ADR-RES 2.38 µM | UACC-62 8.07 µM | KM12 2.84 µM | SK-MEL-5 2.66 µM | HOP-62 4.68 µM | HCC 2998 3.15 µM | OVCAR-3 1.92 µM | SK-OV-3 4.07 µM
